Laboratory results from paper PMC11758220, “Identification of a Privileged Scaffold for Inhibition of Sterol Transport Proteins through the Synthesis and Ring Distortion of Diverse, Pseudo-Natural Products” (ACS Central Science, 2025).

Key:
Type in all cases: binding
Details in all cases: single dose, Dose = 10 µM
STARD3 = target: T1, STARD3 (Homo sapiens, UniProt Q14849); assay: Differential scanning fluorimetry (DSF), STARD3
T1 construct: STARD3(216-444); made in house; host or cells: E. coli BL21(DE3)
T1 sequence (Q14849 216-444): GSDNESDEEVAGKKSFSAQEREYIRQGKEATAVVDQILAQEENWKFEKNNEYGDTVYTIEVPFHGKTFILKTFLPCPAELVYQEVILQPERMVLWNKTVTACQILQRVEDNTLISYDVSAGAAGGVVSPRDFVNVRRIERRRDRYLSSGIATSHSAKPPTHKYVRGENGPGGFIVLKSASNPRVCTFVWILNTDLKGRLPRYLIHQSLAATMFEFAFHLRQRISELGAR
Excerpt: (§1) Protein expression constructs
(§2) Human ASTER domains of Aster-A(359-547), -B(364-552) and -C(318-504) were subcloned into a pGEX-6p-2rbs vector, thus introducing the cloning artifact ‘GPLGS’.3 The pGEX-6P-1-GST-OSBP(377- […]
(§3) a gift from James H. Hurley (University of California).4 The pHIS_2His6_Thrombin_STARD4(2-205;C75S) plasmid was a gift from Young Jun Im (Chonnam National University).5 STARD5A was a gift from Nicola Burgess-Brown (Addgene plasmid #42392; http://n2t.net/addgene:42392; […]
(§4) Protein expression and purification […]
(§5) vectors including an N-terminal PreScission-cleavable glutathione S-transferase (GST)-tag were expressed in Escherichia coli (E. coli) OverExpress C41 in Terrific Broth (TB) medium for 16 h at 18 °C after the induction with 0.1 mM isopropyl β-D-1-thiogalactopyranoside (IPTG). Cells were harvested at 3500 × g for 15 minutes and lysed by sonication in buffer containing 50 mM HEPES pH 7.5, 300 mM NaCl, 10 %v/v glycerol, 5 mM dithiothreitol (DTT), 0.1 %v/v Triton X-100 and protease inhibitor mix HP plus (Serva). The lysate was purified by affinity chromatography on a GSTrap FF column (Cytiva) using an ÄKTA Start (Cytiva) in buffer containing 50 mM HEPES pH 7.5, 300 mM NaCl, 10 %v/v glycerol, 5 mM DTT and 0.01 %v/v Triton X-100. The GST-tag was cleaved overnight on the column at 4 °C. The Aster sterol binding domains were further purified by size-exclusion chromatography (SEC) on a HiLoad 16/600 Superdex 75 pg (Cytiva) in buffer containing 20 mM HEPES pH 7.5, 300 mM NaCl, 10 %v/v […]
(§6) STARD5(6-213) harboring an N-terminal His6-Tag were expressed in E. coli BL21(DE3) in Luria-Bertani Broth (LB) medium for approximately 16 h at 18 °C after induction with 0.15 mM IPTG. Cells were harvested at 3500 × g for 15 minutes and lysed by sonication in buffer containing 50 mM HEPES pH 7.5, 150 mM NaCl, 5 %v/v glycerol, 5 mM DTT, 0.1 %v/v Triton X -100 and ethylenediaminetetraacetic acid (EDTA)-free protease inhibitor cocktail (Sigma-Aldrich). The cleared lysate was purified by affinity chromatography on a Ni-NTA Superflow Cartridge (Qiagen) using an ÄKTA Start (Cytiva) in buffer containing 50 mM HEPES pH 7.5, 150 mM NaCl, 5 %v/v glycerol, 5 mM DTT. START domains were eluted by using elution buffer containing 50 mM HEPES pH 7.5, 150 mM NaCl, 5 %v/v glycerol, 5 mM DTT and 500 mM imidazole. Proteins were further purified by SEC on a HiLoad 16/600 Superdex 75 pg (Cytiva) in buffer containing 20 mM HEPES pH 7.5, 150 mM NaCl, 5 %v/v glycerol and 2 mM DTT.
(§7) The ORP domain of human OSBP(377-807) in the pGEX-6p-1 vector with an N-terminal PreScission-cleavable GST-tag was expressed in E. coli OverExpress C41 in LB medium for 16 h at 18 °C after induction with 0.1 mM IPTG. Cells were harvested at 3500 × g for 15 minutes and lysed by sonication in buffer containing 20 mM HEPES pH 7.5, 300 mM NaCl, 10 %v/v glycerol, 5 mM DTT, 0.1 %v/v Triton X-100 and EDTA-free protease inhibitor cocktail (Sigma-Aldrich). The cleared lysate was purified by affinity chromatography on a GSTrap HF column (Cytiva) using an ÄKTA Start (Cytiva) in buffer containing 20 mM HEPES pH 7.5, 300 mM NaCl, 10 %v/v glycerol, 5 mM DTT. OSBP(377 -807) was eluted by using elution buffer containing 20 mM HEPES pH 7.5, 300 mM NaCl, 10 %v/v glycerol, 5 mM DTT and 10 mM reduced glutathione. Proteins were further purified by SEC on a HiLoad 16/600 Superdex 75 pg (Cytiva) using an ÄKTA Explorer (Cytiva) in buffer containing 20 mM HEPES pH 7.5, 150 mM NaCl, 10 %v/v glycerol and 2 mM DTT.
(§8) The ORP domains of human ORP1(534-950) in pET24b(+) and ORP2(49-480) in the pET24b(+) vector including an N-terminal His6-Tag were expressed in E. coli BL21(DE3) in TB medium for approximately 16 h at 18 °C after induction with 0.1 mM IPTG. Cells were collected at 3500 × g for 15 minutes and lysed by sonification in buffer containing 10 mM Tris-HCl pH 8, 300 mM NaCl, 5 % glycerol, 2 mM DTT, 0.1 % Triton X-100 and EDTA-free protease inhibitor cocktail (Sigma-Aldrich). The cleared […]

STARD4 = target: T2, STARD4 (Homo sapiens, UniProt Q96DR4, C75S); assay: Differential scanning fluorimetry (DSF), STARD4
T2 construct: STARD4(2-205; C75S); made in house; host or cells: E. coli BL21(DE3)
T2 sequence (Q96DR4 2-205 C75S): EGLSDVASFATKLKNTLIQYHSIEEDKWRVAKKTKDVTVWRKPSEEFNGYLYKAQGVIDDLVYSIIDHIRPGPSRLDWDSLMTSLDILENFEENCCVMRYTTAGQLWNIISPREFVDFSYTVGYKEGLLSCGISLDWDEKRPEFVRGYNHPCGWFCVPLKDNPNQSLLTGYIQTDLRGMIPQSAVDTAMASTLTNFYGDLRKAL
Excerpt: as §1, §2, §3, §4, §5, §6, §7, §8

STARD5 = target: T3, STARD5 (Homo sapiens, UniProt Q9NSY2); assay: Differential scanning fluorimetry (DSF), STARD5
T3 construct: STARD5(6-213); host or cells: E. coli BL21(DE3)
T3 sequence (Q9NSY2 6-213): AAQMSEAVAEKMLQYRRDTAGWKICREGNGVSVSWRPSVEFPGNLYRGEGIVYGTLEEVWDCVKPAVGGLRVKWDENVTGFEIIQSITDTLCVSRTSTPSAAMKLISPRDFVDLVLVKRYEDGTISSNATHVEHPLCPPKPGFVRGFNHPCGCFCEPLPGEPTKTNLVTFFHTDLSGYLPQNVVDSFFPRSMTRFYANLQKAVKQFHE
Excerpt: as §1, §2, §3, §4, §5, §6, §7, §8

Cc1ccc2c(c1)C(=O)[C@]1(CC[C@@H]3C[C@H](O)CC[C@@]31C)N2 [Compound 13]
ΔTm at 10 µM (STARD3): -0.0638 °C
ΔTm at 10 µM (STARD4): 1.1 °C
ΔTm at 10 µM (STARD5): 0.143 °C
